Data reported in US20250179059A1 (The Regents of the University of California, priority 2021, published 2025).
pIC50: −log10 of the molar value. Like-named read-outs stand apart in the source and are kept apart here.

What was measured:
[1] = system: human SKM-1 acute myeloid leukemia cells; experiment: SKM-1 antiproliferation cell-based assay (ATPlite); details: Homo sapiens
How it was run: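 Log-phase cells in RPMI 1640/15% FBS were seeded at 34722 cells/mL and exposed for 4 days to nine-concentration DMSO serial dilutions in triplicate. Viability was read as ATP luminescence (ATPlite 1step), and IC50 values came from variable-slope non-linear regression.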

[2] = target: T1, human BRD4 bromodomain II (Homo sapiens, UniProt O60885); experiment: Bromodomain binding assay (AlphaScreen), BRD4 BDII
T1 construct: human BRD4 bromodomain II [based on Genbank NM_058243, residues 349-460]; host or cells: E. coli
How it was run: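 AlphaScreen competition with biotinylated H4 peptide (aa 1-21, K5/K8/K12/K16Ac), using nickel-chelate acceptor and streptavidin donor beads. Targets were His6-BRD4 BDI (44-170) or BDII (349-460), with a 30 min compound preincubation over a 10-point 3-fold series. IC50 was fitted from percentage peptide binding.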

[3] = SKM-1, 96 h, SKM-1 antiproliferation assay, 4 days, Table C2
[4] = AlphaScreen assay, Table C2, read-out: BRD4 BDII IC50
[5] = SKM-1, SKM-1 antiproliferation assay
[6] = BRD4 BDII AlphaScreen assay, read-out: BRD4 BD2 IC50

| Structure (SMILES) | GI50 [1, 3] | pIC50 [2, 4] | GI50 [1, 5] | pIC50 [2, 6] |
| --- | --- | --- | --- | --- |
| CC(=O)Nc1ccc(-c2cccc(-c3ccnc(N4CCN[C@H](C)C4)c3)c2O)cc1F [Example 255, (R)-N-(3-fluoro-2′-hydroxy-3'-(2-(3-methylpiperazin-1-yl)pyridin-4-yl)-[1,1′-biphenyl]-4-yl)acetamide] | 30 to 300 nM | 8.00 to 9.00 | – | – |
| Cc1ncc(-c2cc(F)cc(-c3ccc(-n4ccn(C)c4=O)c(Cl)c3)c2O)cc1N1CC2CCC(C1)N2C(C)C [Example 835, 1-(3-chloro-5′-fluoro-2′-hydroxy-3′-(5-(8-isopropyl-3,8-diazabicyclo[3.2.1]octan-3-yl)-6-methylpyridin-3-yl)-[1,1′-biphenyl]-4-yl)-3-methyl-1H-imidazol-2(3H)-one] | 0.3 to 30 nM | 8.00 to 9.00 | – | – |
| Cn1ccn(-c2ccc(-c3cc(F)cc(-c4ccnc(N5C[C@@H](O)[C@@H](O)C5)c4)c3O)cc2Cl)c1=O [Example 739, 1-(3-chloro-3′-(2-((3S,4R)-3,4-dihydroxypyrrolidin-1-yl)pyridin-4-yl)-5′-fluoro-2′-hydroxy-[1,1′-biphenyl]-4-yl)-3-methyl-1H-imidazol-2(3H)-one] | 0.3 to 30 nM | 9.00 to 11.00 | – | – |
| Cn1ccn(-c2ccc(-c3cc(F)cc(-c4cccc(C#CC(C)(C)O)c4)c3O)cc2Cl)c1=O [Example 772, 1-(3-chloro-5′-fluoro-2′-hydroxy-3″-(3-hydroxy-3-methylbut-1-yn-1-yl)-[1,1′:3′,1″-terphenyl]-4-yl)-3-methyl-1H-imidazol-2(3H)-one] | 300 to 3000 nM | 7.00 to 8.00 | – | – |
| Cn1ccn(-c2ccc(-c3cc(F)cc(-c4cnc(Cl)c(N5CCN(C(C)(C)C)CC5)c4)c3O)cc2Cl)c1=O [Example 789, 1-(3′-(5-(4-(tert-butyl)piperazin-1-yl)-6-chloropyridin-3-yl)-3-chloro-5′-fluoro-2′-hydroxy-[1,1′-biphenyl]-4-yl)-3-methyl-1H-imidazol-2(3H)-one] | 0.3 to 30 nM | 8.00 to 9.00 | – | – |
| Cn1ccn(-c2ccc(-c3cc(F)cc(-c4cc(N5CC[C@](C)(N)C5)n(C)c(=O)c4)c3O)cc2Cl)c1=O [Example 765, (S)-6-(3-amino-3-methylpyrrolidin-1-yl)-4-(3′-chloro-5-fluoro-2-hydroxy-4′-(3-methyl-2-oxo-2,3-dihydro-1H-imidazol-1-yl)-[1,1′-biphenyl]-3-yl)-1-methylpyridin-2(1H)-one] | 0.3 to 30 nM | 8.00 to 9.00 | – | – |
| Cc1ncc(-c2cc(F)cc(-c3ccc(-n4ccn(C)c4=O)c(Cl)c3)c2O)cc1N1CC(C)(O)C1 [Example 843, 1-(3-chloro-5′-fluoro-2′-hydroxy-3′-(5-(3-hydroxy-3-methylazetidin-1-yl)-6-methylpyridin-3-yl)-[1,1′-biphenyl]-4-yl)-3-methyl-1H-imidazol-2(3H)-one] | 0.3 to 30 nM | 9.00 to 11.00 | – | – |
| COc1ncc(-c2cc(F)cc(-c3ccc(-n4ccn(C)c4=O)c(Cl)c3)c2O)cc1N1CC[C@]2(CCCN2C(C)C)C1 [Example 958, (R)-1-(3-chloro-5′-fluoro-2′-hydroxy-3′-(5-(1-isopropyl-1,7-diazaspiro[4.4]nonan-7-yl)-6-methoxypyridin-3-yl)-[1,1′-biphenyl]-4-yl)-3-methyl-1,3-dihydro-2H-imidazol-2-one] | – | – | 0.3 to 30 nM | 9.00 to 11.00 |
| Cn1ccn(-c2ccc(-c3cc(F)cc(-c4cncc(N5CC6CNC(C6)C5)c4)c3O)cc2Cl)c1=O (stereo not shown) [Example 572] | 0.3 to 30 nM | 9.00 to 11.00 | – | – |
| [2H]C([2H])([2H])n1ccn(-c2ccc(-c3cc(F)cc(-c4ccnc(N5CC[C@H](N)C5)c4)c3O)cc2Cl)c1=O [Example 451, (S)-1-(3′-(2-(3-aminopyrrolidin-1-yl)pyridin-4-yl)-3-chloro-5′-fluoro-2′-hydroxy-[1,1′-biphenyl]-4-yl)-3-deuteromethyl-1H-imidazol-2(3H)-one] | 0.3 to 30 nM | 9.00 to 11.00 | – | – |
| Cn1ccn(-c2ccc(-c3cc(F)cc(-c4cccc(-c5cccc(N)c5)c4)c3O)cc2Cl)c1=O [Example 862] | – | – | 300 to 3000 nM | 7.00 to 8.00 |
| CNC(=O)c1cc(-c2cccc(-c3ccc(NC(C)=O)c(F)c3)c2O)cc(N2CCNCC2)n1 [Example 349, 4-(4′-acetamido-3′-fluoro-2-hydroxy-[1,1′-biphenyl]-3-yl)-N-methyl-6-(piperazin-1-yl)picolinamide] | 300 to 3000 nM | 7.00 to 8.00 | – | – |
| Cc1cc(-c2ccnc(N3CC[C@H](N)C3)c2)c(O)c(-c2ccc(N3CCN(C)C3=O)c(Cl)c2)c1 [Example 362, (S)-1-(3′-(2-(3-aminopyrrolidin-1-yl)pyridin-4-yl)-3-chloro-2′-hydroxy-5′-methyl-[1,1′-biphenyl]-4-yl)-3-methylimidazolidin-2-one] | 30 to 300 nM | 8.00 to 9.00 | – | – |

Results, then the molecule that gave them:

| GI50 [1, 3] | pIC50 [2, 4] | GI50 [1, 5] | pIC50 [2, 6] | Structure (SMILES) |
| --- | --- | --- | --- | --- |
| 0.3 to 30 nM | 9.00 to 11.00 | – | – | Cn1ccn(-c2ccc(-c3cc(F)cc(-c4cncc(N5CCNC6(CC6)C5)c4)c3O)cc2Cl)c1=O [Example 550, 1-(3′-(5-(4,7-diazaspiro[2.5]octan-7-yl)pyridin-3-yl)-3-chloro-5′-fluoro-2′-hydroxy-[1,1′-biphenyl]-4-yl)-3-methyl-1H-imidazol-2(3H)-one] |
| ≥ 3000 nM | < 7.00 | – | – | O=C1CCCN1c1ccc(-c2c[nH]cc(-c3cccc(N4CCNCC4)c3)c2=O)cc1F [Example 307, 3-(3-fluoro-4-(2-oxopyrrolidin-1-yl)phenyl)-5-(3-(piperazin-1-yl)phenyl)pyridin-4(1H)-one] |
| – | – | 0.3 to 30 nM | 8.00 to 9.00 | Cc1ncc(-c2cc(F)cc(-c3ccc(-n4ccn(C)c4=O)c(Cl)c3)c2O)cc1N1CC[C@]2(CCCN2C(C)C)C1 [Example 956, (R)-1-(3-chloro-5′-fluoro-2′-hydroxy-3′-(5-(1-isopropyl-1,7-diazaspiro[4.4]nonan-7-yl)-6-methylpyridin-3-yl)-[1,1′-biphenyl]-4-yl)-3-methyl-1,3-dihydro-2H-imidazol-2-one] |
| 300 to 3000 nM | < 7.00 | – | – | CC(=O)N1CCN(c2ccc(-c3cc(F)cc(-c4ccnc(N5CCNCC5)c4)c3O)cc2Cl)C1=O [Example 381, 1-acetyl-3-(3-chloro-5′-fluoro-2′-hydroxy-3′-(2-(piperazin-1-yl)pyridin-4-yl)-[1,1′-biphenyl]-4-yl)imidazolidin-2-one] |
| 30 to 300 nM | 8.00 to 9.00 | – | – | C[C@@H]1CN(c2cncc(-c3cccc(-c4ccc(N5CCCC5=O)c(F)c4)c3O)c2)CCN1 [Example 264, (R)-1-(3-fluoro-2′-hydroxy-3′-(5-(3-methylpiperazin-1-yl)pyridin-3-yl)-[1,1′-biphenyl]-4-yl)pyrrolidin-2-one] |
| 300 to 3000 nM | 7.00 to 8.00 | – | – | CC(=O)Nc1ccc(-c2cccc(-c3ccnc(N4CCC(O)CC4)c3)c2O)cc1F [Example 272, N-(3-fluoro-2′-hydroxy-3′-(2-(4-hydroxypiperidin-1-yl)pyridin-4-yl)-[1,1′-biphenyl]-4-yl)acetamide] |
| 30 to 300 nM | 9.00 to 11.00 | – | – | Cn1ccn(-c2ccc(-c3cc(F)cc(-c4ccnc(N5CCN6C(=O)OCCC6C5)c4)c3O)cc2Cl)c1=O (stereo not shown) [Example 675, 2-(4-(3′-chloro-5-fluoro-2-hydroxy-4′-(3-methyl-2-oxo-2,3-dihydro-1H-imidazol-1-yl)-[1,1′-biphenyl]-3-yl)pyridin-2-yl)hexahydropyrazino[1,2-c][1,3]oxazin-6(2H)-one] |
| 300 to 3000 nM | 7.00 to 8.00 | – | – | CC(C)Oc1cc(-c2cc(F)cc(-c3ccnc(N4CCNCC4)c3)c2O)cc(Cl)c1-n1ccn(C)c1=O [Example 434, 1-(3-chloro-5′-fluoro-2′-hydroxy-5-isopropoxy-3′-(2-(piperazin-1-yl)pyridin-4-yl)-[1,1′-biphenyl]-4-yl)-3-methyl-1H-imidazol-2(3H)-one] |
| 0.3 to 30 nM | 8.00 to 9.00 | – | – | C[C@H]1CN(c2cc(-c3cc(F)cc(-c4ccc(-n5ccn(C)c5=O)c(Cl)c4)c3O)cc3[nH]ncc23)CCN1 [Example 595, (S)-1-(3-chloro-5′-fluoro-2′-hydroxy-3′-(4-(3-methylpiperazin-1-yl)-1H-indazol-6-yl)-[1,1′-biphenyl]-4-yl)-3-methyl-1H-imidazol-2(3H)-one] |
| – | – | 0.3 to 30 nM | 8.00 to 9.00 | Cc1cc(-c2cc(F)cc(-c3cccc(N4CCN(C(C)(C)C)CC4)c3)c2O)ccc1-n1ccn(C)c1=O [Example 949, 1-(3″-(4-(tert-butyl)piperazin-1-yl)-5′-fluoro-2′-hydroxy-3-methyl-[1,1′:3′,1″-terphenyl]-4-yl)-3-methyl-1,3-dihydro-2H-imidazol-2-one] |
| 0.3 to 30 nM | 9.00 to 11.00 | – | – | Cn1ccn(-c2ccc(-c3cc(F)cc(-c4cncc(N5CCN(C(C)(C)C)CC5)c4)c3O)cc2Cl)c1=O [Example 664, 1-(3′-(5-(4-(tert-butyl)piperazin-1-yl)pyridin-3-yl)-3-chloro-5′-fluoro-2′-hydroxy-[1,1′-biphenyl]-4-yl)-3-methyl-1H-imidazol-2(3H)-one] |
| – | – | 30 to 300 nM | 7.00 to 8.00 | CC(C)Oc1cc(-c2cc(F)cc(-c3cccc(N4CCN(C(C)(C)C)CC4)c3)c2O)cc(Cl)c1-n1ccn(C)c1=O [Example 937, 1-(3″-(4-(tert-butyl)piperazin-1-yl)-3-chloro-5′-fluoro-2′-hydroxy-5-isopropoxy-[1,1′:3′,1″-terphenyl]-4-yl)-3-methyl-1,3-dihydro-2H-imidazol-2-one] |
| 0.3 to 30 nM | 9.00 to 11.00 | – | – | COC[C@@H]1CN(c2cc(-c3cc(F)cc(-c4ccc(-n5ccn(C)c5=O)c(Cl)c4)c3O)ccn2)CCN1 [Example 666, (S)-1-(3-chloro-5′-fluoro-2′-hydroxy-3′-(2-(3-(methoxymethyl)piperazin-1-yl)pyridin-4-yl)-[1,1′-biphenyl]-4-yl)-3-methyl-1H-imidazol-2(3H)-one] |
